Consider three compounds from patent publication US10682371B2, “Small molecule conjugates specifically activated in tumor microenvironment for targeting and use thereof” (priority 2014, dated 2020).

One assay concerns MDA-MB231 tumor tissue. Put plainly: Activation efficiency by MDA-MB231 tumor tissue (HPLC). It counts as biochemical. The procedure:
At 37 °C, sample compounds were added into 100 μg acidized tumor tissue homogenates in a concentration of 1 mg/ml.
In the experiments, at 37 °C, compounds were added into proteases in 100 μg acidized tumor tissue homogenates in a concentration of 1 mg/ml. […] Meanwhile certain compounds produced in the screening were compared and their activation efficiency in same tissue was analyzed.

Assay [1] deals with Human pancreatic cancer Panc-1. Nature of the assay: Multiple tumor models in nude mice: Panc-1. In kind it is in vivo. The procedure: (§1) 1) Corresponding tumor cells were purchased from American type culture collection (ATCC) and identified according the specification provided by ATCC. Cells were cultivated in DMEM culture solution containing 10% fetal bovine serum at 37° C. and 5% CO2. The cells were passaged for every three days and cells within the 15th passage were used.
(§2) 2) Production of tumor. 5×10^6 corresponding cells were subcutaneously injected to the back of the nude mice. Mice were randomly grouped after the tumor reached at least 100 mm^3. Then treatment began and the day on which the treatment began was day 1.
(§3) 3) Course of treatment. […] The control group was administered by physiological saline. Animals were administered once weekly for three weeks.
(§4) 3) Course of treatment. According to the clinical application of A1, A1 was administered in a dose of ⅙ MTD, i.v., 17.6 μmol/kg. The control group was administered by physiological saline. Animals were administered once weekly for three weeks.
(§5) 3) Course of treatment. According to the clinical application of B1, B1 was administered in a dose of ⅙ MTD, i.v., 17.6 μmol/kg. The control group was administered by physiological saline. Animals were administered once weekly for three weeks.
as §3, §3

Assay [2] has as its system Human renal cancer OS-RC-2. Put plainly: Multiple tumor models in nude mice: OS-RC-2. It counts as in vivo. As to the method: as §1, §2, §3, §4, §5, §3, §3
The test system of assay [3] is Human breast cancer MDA-MB435. Put plainly: Multiple tumor models in nude mice: MDA-MB435. It counts as in vivo. As to the method:
as §1, §2, §3, §4, §5, §3, §3

A short description of assay [4]: Multiple tumor models in nude mice: HT1080. To be noted: Human colon caner HT1080. It counts as in vivo. The procedure: as §1, §2, §3, §4, §5, §3, §3
Assay [5] relates to Human chronic leukemia K562. Put plainly: Multiple tumor models in nude mice: K562. It counts as in vivo. As to the method: as §1, §2, §3, §4, §5, §3, §3
In assay [6] the test system is Human ovarian cancer SK-OV-3. Nature of the assay: Multiple tumor models in nude mice: SK-OV-3. In kind it is in vivo. The procedure: as §1, §2, §3, §4, §5, §3, §3
The next assay deals with Human colon cancer HT-29. Nature of the assay: Multiple tumor models in nude mice: HT-29. It counts as in vivo. The procedure:
as §1, §2, §3, §4, §5, §3, §3

A further assay relates to Human liver cancer Hepg2. Nature of the assay: Multiple tumor models in nude mice: Hepg2. In kind it is in vivo. As to the method: as §1, §2, §3, §4, §5, §3, §3
In assay [7] the test system is scar and choroidal neovascularization (CNV). Nature of the assay: Inhibition of scar and choroidal neovascularization (CNV) by eye drops after laser photocoagulation. It counts as in vivo, C57 mice. As to the method: Animal: C57 mice of 16 weeks old, all female and 8 animals in each group.
(§6) Production and treatment of scar. […] Two weeks later, eye tissues were taken from 4 animals of each group for immunohistochemical (HE) staining. For another 4 animals, they were subjected to fixed irradiation through photocoagulation by 50 mW laser and then to treatment. 48 hours later, their eye tissues were taken, homogenated, filtered to isolate individual cells in the scar and choroidal neovascularization (CNV) tissues. The cells were washed by buffer twice and stained by biotin-conjugated anti-F4/80 (biotin-labeled precursor cell antigen from macrophage) and FITC-conjugated anti-CD45 (isothiocyanate fluorescein labeled leucocyte common antigen) at ambient temperature for 1 hour. Then the cells were washed by PBS containing 1% fetal bovine serum twice and then analyzed for the ratio of the macrophage precursor antigen positive cells in the leucocyte common antigen (CD45) positive cells by flow cytometry.

For a further assay, the system named is macrophage. Put plainly: Macrophage precursor antigen (F4/80) positive cells in CD45 positive cells of scar/CNV tissue, flow cytometry. In kind it is in vivo, C57 mice. To be noted: 50 mW laser, 48 hours after treatment. As to the method:
as §6
(Flow cytometry measures light scatter and fluorescence of single cells or particles in a stream.)

Another assay relates to Panc-1 cells. Put plainly: Tumor treatment in nude mice, Panc-1 model (Example 60). In kind it is in vivo. The procedure: 1) Panc-1 cells were purchased from American type culture collection (ATCC) and identified according the specification provided by ATCC. Cells were cultivated in DMEM culture solution containing 10% fetal bovine serum at 37° C. and 5% CO2. The cells were passaged for every three days and cells within the 15th passage were used.
2) Production of tumor. 5×10^6Panc-1 cells were subcutaneously injected to the back of the nude mice. Mice were randomly grouped after the tumor reached at least 100 mm^3. Then treatment began and the day on which the treatment began was day 1.
(§7) […]. The control group was administered by physiological saline. Drugs were administered once weekly for four weeks.

Another assay deals with HT1080 cells. Put plainly: Tumor treatment in nude mice, HT1080 model (Example 61). It counts as in vivo. The procedure: 1) HT1080 cells were purchased from American type culture collection (ATCC) and identified according the specification provided by ATCC. Cells were cultivated in DMEM culture solution containing 10% fetal bovine serum at 37° C. and 5% CO2. The cells were passaged for every three days and cells within the 15th passage were used.
2) Production of tumor. 5×10^6 HT1080 cells were subcutaneously injected to the back of the nude mice. Mice were randomly grouped after the tumor reached at least 100 mm^3. Then treatment began and the day on which the treatment began was day 1.
as §7

The mark [8] stands for this setting: Table 41, i.v. 17.6 μmol/kg once weekly for three weeks.
Where [9] appears, read: 15 mg/kg once weekly for three weeks, Day 26.
[10] abbreviates: Day 10, Panc-1 in nude mice, IV once weekly for four weeks, E1-E4 15 mg/kg, mitomycin 2 mg/kg.
[11] abbreviates: Day 24, Panc-1 in nude mice, IV once weekly for four weeks, E1-E4 15 mg/kg, mitomycin 2 mg/kg.
The mark [12] stands for this setting: Day 13, HT1080 in nude mice, IV once weekly for four weeks, E1-E4 15 mg/kg, mitomycin 2 mg/kg.
[13] abbreviates: Day 26, HT1080 in nude mice, IV once weekly for four weeks, E1-E4 15 mg/kg, mitomycin 2 mg/kg.
[14] abbreviates: Table 51, 25 mg/kg once weekly for three weeks.

For the compound `COCCOCC(=O)NCCCC[C@H](NC(=O)COCCOC)C(=O)N[C@H](C)C(=O)N[C@H](C)C(=O)N[C@H](CC(N)=O)C(=O)Nc1ccc(COC(=O)OC(C(=O)OC2C[C@@]3(O)[C@@H](OC(=O)c4ccccc4)[C@H]4[C@](C)(C(=O)[C@H](O)C(=C2C)C3(C)C)[C@@H](O)CC2OC[C@]24OC(C)=O)[C@@H](NC(=O)OC(C)(C)C)c2ccccc2)cc1` (stereo partly drawn) [Compound B1], the “activation efficiency (%)” value with MDA-MB231 tumor tissue (Table 35, water-soluble Docetaxel series and controls) is 93.4%. The “inhibitory rate on tumor (Day 26)” value in assay [1] (setting [8]) was 73.56%; in [2] (setting [8]), 86.67%; in [3] (setting [8]) it was 78.84%; in assay [4] (setting [8]) it was 84.46%; in [5] (setting [8]), 72.56%; in assay [6] (setting [8]), 74.67%. The entries for the “inhibitory rate on tumor (Day 26)” value in the assay on Human colon cancer HT-29 (setting [8]) and in the assay on Human liver cancer Hepg2 (setting [8]) were 74.56% and 81.56%, respectively.

For `COCCOCC(=O)N[C@H](C)C(=O)N[C@H](C)C(=O)N[C@H](CC(N)=O)C(=O)Nc1ccc(COC(=O)N2[C@@H]3CN4C5=C(C(=O)C(N)=C(C)C5=O)[C@H](COC(N)=O)[C@]4(OC)[C@@H]32)cc1` [Compound E1, 2-(2-methoxyethoxy) acetyl-L-Ala-L-Ala-L-Asn-4-amino benzyl mitomycin], the “Maximal scar radius observed by pathological staining (pixel)” value in assay [7] (150 mW laser photocoagulation, eye drops daily, two weeks, C57 mice) turned out to be 332 ± 124 pixel. Further, in [7] (eye drops, compared to the control group and the mitomycin group), the “Treatment effect on scar radius and inhibition of macrophage, in words” value was “greatly improved treatment effect on scar radius and inhibition of macrophage”. In the assay on macrophage, the “F4/80+ cells among CD45+ cells (%)” value came out at 7.1 ± 1.4%. For the same compound, the “inhibitory rate on tumor (Day 26)” value in assay [1] (setting [9]) is given as 86.5%; in assay [2] (setting [9]), 81.3%; in assay [3] (setting [9]), 86.3%; in assay [4] (setting [9]) it was 95.4%; in assay [5] (setting [9]) it was 77.3%; in the assay with HT1080 cells (setting [13]), 78.9%. Further, the entries for the “inhibitory rate on tumor (Day 26)” value (in [6] (setting [9]); with Human colon cancer HT-29 (setting [9]); in the assay with Human liver cancer Hepg2 (setting [9])) were 84.5%, 86.7% and 85.7%, respectively. Besides, the “Size of tumor (mm^3) Day 10” value with Panc-1 cells (setting [10]) is reported as 76.42 ± 14.96 mm^3. Moreover, the “inhibitory rate on tumor Day 10” value in the assay with Panc-1 cells (setting [10]) is on record as 35.7%. For the same compound, the “Size of tumor (mm^3) Day 24” value in the assay with Panc-1 cells (setting [11]) was 84.62 ± 45.94 mm^3. Further, in the assay with Panc-1 cells (setting [11]), the “inhibitory rate on tumor Day 24” value was 66.1%. Besides, the “Inhibition on tumor growth, in words” value is “greatly improved” in the assay with Panc-1 cells (Panc-1, compared with mitomycin group and control group); “greatly improved” in the assay on HT1080 cells (HT1080, compared with mitomycin group and control group). In the assay with HT1080 cells (setting [12]), the “Size of tumor (mm^3) Day 13” value turned out to be 438.15 ± 47.96 mm^3. Besides, the “inhibitory rate on tumor Day 13” value in the assay with HT1080 cells (setting [12]) amounted to 51.9%. Moreover, in the assay with HT1080 cells (setting [13]), the “Size of tumor (mm^3) Day 26” value was found to be 331.57 ± 114.74 mm^3.

As to `COCCOCC(=O)N[C@H](C)C(=O)N[C@H](C)C(=O)N[C@H](CC(N)=O)C(=O)Nc1ccc(COC(=O)OC(C(=O)OC2C[C@@]3(O)[C@@H](OC(=O)c4ccccc4)[C@H]4[C@](C)(C(=O)[C@H](O)C(=C2C)C3(C)C)[C@@H](O)CC2OC[C@]24OC(C)=O)[C@@H](NC(=O)OC(C)(C)C)c2ccccc2)cc1` (stereo partly drawn) [Compound D1, 2-(2-methoxyethoxy) acetyl-L-Ala-L-Ala-L-Asn-4-amino benzyl-Docetaxel], the “activation efficiency (%)” value in the assay with MDA-MB231 tumor tissue (Table 46, Docetaxel D series and controls) is reported as 91.5%. Besides, the “inhibitory rate on tumor (Day 26)” value in [1] (setting [14]) came out at 89.4%; in assay [2] (setting [14]), 87.7%; in assay [3] (setting [14]) it was 93.5%; in assay [4] (setting [14]) it was 94.6%; in [5] (setting [14]) it was 84.6%; in assay [6] (setting [14]), 82.9%. The “inhibitory rate on tumor (Day 26)” value in the assay on Human colon cancer HT-29 (setting [14]) is given as 68.6%; in the assay on Human liver cancer Hepg2 (setting [14]) it was 75.7%.
